# Measurements published in the supplement of paper PMC4862054.
# What was measured:
# Details in all cases: incubation time: 72 h
# [1] = test system: CAL-51; test: normalised response (% of control), CellTox Green; higher = less cell death (100 = DMSO, 0 = benzethonium chloride kill control)
# Summary of the method: (§1)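 Breast cancer cell lines in 20 µl suspension were added to 384-well plates containing compound at 5 concentrations, spaced in 10-fold steps across a 10,000-fold range chosen for each compound, and incubated for 72 h. CellTox Green fluorescence was read at 485/520 nm, followed by CellTiter-Glo luminescence after 10 min at room temperature. Signals on each plate were normalised so that 0.1 % DMSO equals 100 and a positive kill control equals 0. Every value in the table is the normalised signal at one concentration of the series.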
# [2] = test system: CAL-85-1; test: as above
# Summary of the method: as §1
# [3] = test system: MDA-MB-453; test: as above
# Summary of the method: as §1
# [4] = test system: BT-549; test: as above
# Summary of the method: as §1
# [5] = test system: CAL-120; test: as above
# Summary of the method: as §1
# [6] = test system: MDA-MB-436; test: as above
# Summary of the method: as §1
# [7] = test system: MDA-MB-468; test: as above
# Summary of the method: as §1
# [8] = test system: BT-474; test: as above
# Summary of the method: as §1
# [9] = test system: HCC1937; test: as above
# Summary of the method: as §1
# [10] = test system: MDA-MB-231; test: as above
# Summary of the method: as §1
# [11] = test system: CAL-148; test: as above
# Summary of the method: as §1
# [12] = test system: MCF-10A; test: as above
# Summary of the method: as §1
# [13] = test system: HCC1599; test: as above
# Summary of the method: as §1
# [14] = test system: MFM-223; test: as above
# Summary of the method: as §1
# [15] = test system: HDQ-P1; test: as above
# Summary of the method: as §1
# [16] = test system: HCC1143; test: as above
# Summary of the method: as §1
# [17] = test system: DU-4475; test: as above
# Summary of the method: as §1
# [18] = test system: SK-BR-3; test: normalised response (% of control), CellTiter-Glo; higher = more viable cells (100 = DMSO, 0 = benzethonium chloride kill control)
# Experimental: (§2)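 DSRT, 72 h incubation, CellTox Green / CellTiter-Glo readout. Signal is normalised to DMSO and benzethonium chloride controls. Value is the normalised response at dose 3.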
# [19] = test system: CAL-51; test: as above
# Experimental: as §2
# [20] = test system: Hs578T; test: as above
# Experimental: as §2
# [21] = test system: CAL-85-1; test: as above
# Experimental: as §2
# [22] = test system: MDA-MB-453; test: as above
# Experimental: as §2
# [23] = test system: BT-549; test: as above
# Experimental: as §2
# [24] = test system: CAL-120; test: as above
# Experimental: as §2
# [25] = test system: MDA-MB-436; test: as above
# Experimental: as §2
# [26] = test system: MDA-MB-468; test: as above
# Experimental: as §2
# [27] = test system: BT-474; test: as above
# Experimental: as §2
# [28] = test system: HCC1937; test: as above
# Experimental: as §2
# [29] = test system: MDA-MB-231; test: as above
# Experimental: as §2
# [30] = test system: CAL-148; test: as above
# Experimental: as §2
# [31] = test system: MCF-10A; test: as above
# Experimental: as §2
# [32] = test system: HCC1599; test: as above
# Experimental: as §2
# [33] = test system: MFM-223; test: as above
# Experimental: as §2
# [34] = test system: HDQ-P1; test: as above
# Experimental: as §2
# [35] = test system: HCC1143; test: as above
# Experimental: as §2
# [36] = test system: DU-4475; test: as above
# Experimental: as §2
# [37] = test system: Hs578T; test: normalised response (% of control), CellTox Green; higher = less cell death (100 = DMSO, 0 = benzethonium chloride kill control)
# Summary of the method: as §1
SMILES,normalised response [1],normalised response [2],normalised response [3],normalised response [4],normalised response [5],normalised response [6],normalised response [7],normalised response [8],normalised response [9],normalised response [10],normalised response [11],normalised response [12],normalised response [13],normalised response [14],normalised response [15],normalised response [16],normalised response [17],normalised response [18],normalised response [19],normalised response [20],normalised response [21],normalised response [22],normalised response [23],normalised response [24],normalised response [25],normalised response [26],normalised response [27],normalised response [28],normalised response [29],normalised response [30],normalised response [31],normalised response [32],normalised response [33],normalised response [34],normalised response [35],normalised response [36],normalised response [37]
CC[C@H](C)C(=O)O[C@H]1C[C@H](O)C=C2C=C[C@H](C)[C@H](CC[C@@H](O)C[C@@H](O)CC(=O)O)[C@H]21 [Pravastatin] (100 nM),73.3%,97.9%,98.4%,103%,97.2%,-74.8%,107%,99.2%,95.9%,102%,88.8%,99%,96.2%,98.2%,100%,79.9%,101%,93.6%,63.4%,93.2%,99%,85.9%,101%,101%,13.5%,97.7%,99.2%,93.7%,97.8%,86.3%,97.4%,88.7%,88.8%,98%,101%,95.7%,
COc1cc([C@@H]2c3cc4c(cc3[C@@H](O[C@@H]3O[C@@H]5CO[C@@H](c6cccs6)O[C@H]5[C@H](O)[C@H]3O)[C@H]3COC(=O)[C@H]23)OCO4)cc(OC)c1O [Teniposide] (100 nM),74.2%,89.4%,107%,90.5%,96%,95.1%,54.9%,99.7%,,103%,36.3%,83.6%,91.3%,99.3%,102%,111%,93.6%,58.5%,78.5%,90%,91.6%,118%,68%,94.7%,62.6%,79.3%,87.8%,91.9%,94.3%,74.5%,88.2%,66.7%,108%,96.4%,83.2%,69.2%,
O=C(O)CCCCC(CCSCc1ccccc1)SCc1ccccc1 (stereo unspecified) [CPI-613] (100 nM),75.1%,104%,101%,96.5%,102%,,122%,93.3%,103%,51.4%,104%,104%,95.4%,64.3%,107%,73.1%,101%,104%,61.4%,99.6%,96.4%,104%,105%,98.9%,101%,102%,106%,101%,107%,108%,107%,114%,106%,99%,106%,101%,105%
CC1=C(/C=C/C(C)=C/C=C/C(C)=C/C(=O)O)C(C)(C)CCC1 [Tretinoin] (100 nM),102%,102%,109%,115%,101%,106%,159%,103%,92.8%,117%,95.3%,105%,99.1%,103%,108%,96.3%,108%,79.8%,87.7%,98.5%,97.5%,108%,102%,105%,100%,92%,92.7%,95.8%,102%,91.9%,88.7%,103%,93.7%,100%,97.4%,98.3%,
CCCCC(=O)OCC(=O)[C@]1(O)Cc2c(O)c3c(c(O)c2[C@@H](O[C@H]2C[C@H](NC(=O)C(F)(F)F)[C@H](O)[C@H](C)O2)C1)C(=O)c1c(OC)cccc1C3=O [Valrubicin] (50 nM),76.7%,118%,108%,121%,111%,101%,152%,103%,,122%,76.3%,106%,115%,108%,107%,111%,109%,94.8%,72.7%,101%,98.8%,118%,86.2%,98.4%,92.2%,92.9%,98.2%,97.9%,97.4%,97%,101%,91.7%,101%,102%,104%,84%,114%
Cc1cnc(NC(=O)Nc2cc(Br)c(C)cc2OC[C@@H]2CNCCO2)cn1 [Rabusertib] (10 nM),106%,95.2%,106%,95.7%,102%,107%,89.4%,102%,119%,122%,98.4%,103%,110%,109%,94.3%,,106%,110%,91.9%,107%,102%,118%,98.4%,109%,115%,108%,97.6%,99.7%,109%,112%,107%,106%,104%,96.3%,104%,104%,108%
Nc1nc2[nH]cc(CCc3ccc(C(=O)N[C@@H](CCC(=O)O)C(=O)O)cc3)c2c(=O)[nH]1 [Pemetrexed] (100 nM),88.1%,103%,104%,96.6%,98%,58.9%,93%,96.2%,88.5%,87.1%,99.7%,103%,91.2%,90.4%,102%,,97.7%,63.2%,66.6%,28.8%,61%,98.1%,104%,105%,80.9%,80.4%,88.6%,75.7%,96.8%,93.2%,92.8%,72.1%,95.2%,92.3%,103%,95%,103%
N#Cc1ccc(C(c2ccc(C#N)cc2)n2cncn2)cc1 [Letrozole] (100 nM),103%,114%,100%,96.3%,91.1%,,,93.5%,83.5%,79%,87.3%,105%,102%,94.5%,53.6%,108%,101%,102%,104%,105%,103%,101%,104%,99.8%,105%,94.5%,95.5%,94.2%,101%,97.2%,103%,95.9%,106%,96.7%,104%,102%,75.3%
